PMC3705412, “PTP1B Inhibitory and Anti-Inflammatory Effects of Secondary Metabolites Isolated from the Marine-Derived Fungus Penicillium sp. JF-55” (Marine Drugs, 2013)

Tests used:
Format in all cases: cell-based, murine (C57BL/6 mice)
[1] = test system: IL-1β production in murine peritoneal macrophages; assay: IL-1β production in LPS-stimulated macrophages, ELISA; details: Mus musculus, Peritoneal macrophage; pre-treated 12 h, LPS 1 μg/mL 18 h
Experimental: C57BL/6 mice were purchased from Orient Bio Co. (Sungnam, Kyung-Kido, Korea). TG-elicited peritoneal macrophages were harvested four days after intraperitoneal (i.p.) injection of 3 mL of TG [37]. Peritoneal lavage was performed using 8 mL of Hanks’ Balanced Salt Solution containing 10 U/mL heparin. The cells were distributed in Roswell Park Memorial Institute medium (RPMI) supplemented with 10% heat-inactivated FBS, in 6-well tissue culture plates (5 × 10^6 cells/mL). The level of PGE2, TNF-α or IL-1β present in each sample was determined using a commercially available kit from R & D Systems. The assay was performed according to the manufacturer’s instructions. Briefly, murine peritoneal macrophages were cultured in 24-well plates, pre-incubated for 12 h with different concentrations of compounds 1–3, and then stimulated for 18 h with LPS. The cell culture supernatants were then immediately collected after treatment and centrifuged at 13,000× g for 2 min to remove particulate matter. The medium was added to a 96-well plate pre-coated with affinity-purified PGE2-specific polyclonal antibodies or the medium was added to a 96-well plate pre-coated with affinity-purified polyclonal antibodies that were specific to mouse TNF-α or IL-1β. An enzyme-linked polyclonal antibody specific for PGE2, mouse TNF-α or IL-1β was added to the wells for 20 h, followed by a final wash to remove any unbound antibody-enzyme reagent. A substrate solution was added, and the intensity of the color produced, which was measured at 450 nm (the correction wavelength was set at 540 nm or 570 nm), was proportional to the amount of PGE2, TNF-α or IL-1β present.

iNOS = assay: Western blotting of iNOS protein expression in LPS-stimulated macrophages; details: pre-treatment 12 h, LPS 1 μg/mL 18 h
Experimental: Figure 3 The effects of penstyrylpyrone (1) (A), anhydrofulvic acid (2) (B), and citromycetin (3) (C) on the protein expression of iNOS and COX-2 in murine peritoneal macrophages stimulated with LPS. Murine peritoneal macrophages were pre-treated for 12 h at the indicated compound concentrations and stimulated for 18 h with LPS (1 μg/mL). Western blotting analysis was performed, and the representative blots of three independent experiments are shown.
C57BL/6 mice were purchased from Orient Bio Co. (Sungnam, Kyung-Kido, Korea). TG-elicited peritoneal macrophages were harvested four days after intraperitoneal (i.p.) injection of 3 mL of TG [37]. Peritoneal lavage was performed using 8 mL of Hanks’ Balanced Salt Solution containing 10 U/mL heparin. The cells were distributed in Roswell Park Memorial Institute medium (RPMI) supplemented with 10% heat-inactivated FBS, in 6-well tissue culture plates (5 × 10^6 cells/mL).
(§1) Western blotting analysis was performed by lysing the cells in 20 mM Tris-HCl buffer (pH 7.4) containing a protease inhibitor mixture (0.1 mM PMSF, 5 mg/mL aprotinin, 5 mg/mL pepstatin A, and 1 mg/mL chymostatin). The protein concentration was determined using a Lowry protein assay kit (P5626; Sigma Chemical Co., St. Louis, MO, USA). […]

IκB-α = assay: Western blotting of IκB-α phosphorylation and degradation in LPS-stimulated macrophages; details: pre-treatment 12 h, 5 to 40 μM, LPS 1 μg/mL 1 h
Experimental: (§2) Figure 5 The effects of penstyrylpyrone (1) on the protein expression level of IκB-α phosphorylation, degradation of IκB-α (A), NF-κB translocation (B), and NF-κB DNA binding activity (C) in murine peritoneal macrophages. Murine peritoneal macrophages were pre-treated for 12 h at the indicated concentrations of penstyrylpyrone (1), and stimulated for 1 h with LPS (1 μg/mL). Western blotting analysis of IκB-α and p-IκB-α in the cytoplasm and NF-κB in the nucleus (A, B) were performed. A commercially available NF-κB ELISA (Active Motif) was used to test the nuclear extracts and to determine the degree of NF-κB binding (C). […]
(§3) Murine peritoneal macrophages were homogenized (1:20, w:v) in PER-Mammalian Protein Extraction buffer (Pierce Biotechnology, Rockford, IL, USA) containing freshly added protease inhibitor cocktail I (EMD Biosciences, San Diego, CA, USA) and 1 mM phenylmethylsulfonyl fluoride (PMSF). […] The protein concentration was determined using the bicinchoninic acid (BCA) protein assay kit.
as §1

NF-κB (p65) = assay: Western blotting of NF-κB (p65) nuclear translocation in LPS-stimulated macrophages; details: pre-treatment 12 h, LPS 1 μg/mL 1 h
Experimental: as §2, §3, §1

NF-κB = assay: DNA-binding activity of NF-κB in nuclear extracts (TransAM kit); details: pre-treatment 12 h, LPS 1 μg/mL 1 h
Experimental: Figure 5 The effects of penstyrylpyrone (1) on the protein expression level of IκB-α phosphorylation, degradation of IκB-α (A), NF-κB translocation (B), and NF-κB DNA binding activity (C) in murine peritoneal macrophages. Murine peritoneal macrophages were pre-treated for 12 h at the indicated concentrations of penstyrylpyrone (1), and stimulated for 1 h with LPS (1 μg/mL). Western blotting analysis of IκB-α and p-IκB-α in the cytoplasm and NF-κB in the nucleus (A, B) were performed. A commercially available NF-κB ELISA (Active Motif) was used to test the nuclear extracts and to determine the degree of NF-κB binding (C). The data represent the mean values ± SD of three experiments. *p < 0.05 compared with the group treated with LPS.
C57BL/6 mice were purchased from Orient Bio Co. (Sungnam, Kyung-Kido, Korea). […]
as §3
The DNA-binding activity of NF-κB in the nuclear extracts was measured using the TransAM kit (Active Motif, Carlsbad, CA, USA) according to the manufacturer’s instructions.

IC50 [1]: 13.5 µM
Structure (SMILES): COc1cc(/C=C/c2ccccc2)oc(=O)c1C [Penstyrylpyrone (1), penstyrylpyrone]
iNOS expression (iNOS): decreased | LPS-induced phosphorylation and degradation of IκB-α (IκB-α): markedly inhibited | Nuclear p65 protein levels (NF-κB translocation) (NF-κB (p65)): gradually inhibited | NF-κB DNA-binding activity (NF-κB): impaired this activity in a concentration-dependent manner
